From PubChem BioAssay (NCI)
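Where inhibition never reached the appropriate level, the endpoint shown equals the highest concentration tested. Otherwise, values were interpolated linearly from a five-concentration, 48-hour dose response in 96-well plates. At the GI50, growth is halved. TGI: total growth inhibition.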

Key:
Experiment in all cases: DTP human tumour cell line panel, 48 h
[1] = test system: T-47D breast
[2] = test system: IGROV1 ovarian
[3] = test system: LOX IMVI melanoma
[4] = test system: OVCAR-8 ovarian
[5] = test system: SN12C renal
[6] = test system: A549 NSCLC
[7] = test system: OVCAR-3 ovarian
[8] = test system: SF-295 CNS
[9] = test system: NCI-H522 lung
[10] = test system: HT29 colon
[11] = test system: A498 renal
[12] = test system: SF-539 CNS
[13] = test system: KM12 colon
[14] = test system: TK-10 renal
[15] = test system: RPMI-8226 leukemia
[16] = test system: U251 CNS
[17] = test system: HCT-15 colon
[18] = test system: PC-3 prostate
[19] = test system: SNB-75 CNS
[20] = test system: EKVX NSCLC
[21] = test system: BT-549 breast
[22] = test system: MOLT-4 leukemia
[23] = test system: UO-31 renal
[24] = test system: NCI-H23 lung
[25] = test system: SK-OV-3 ovarian
[26] = test system: NCI-H226 lung
[27] = test system: MDA-MB-231 breast
[28] = test system: SF-268 CNS
[29] = test system: RXF 393 renal
[30] = test system: HCT-116 colon
[31] = test system: NCI/ADR-RES ovarian
[32] = test system: MDA-MB-435
[33] = test system: SR leukemia
[34] = test system: SK-MEL-5 melanoma
[35] = test system: CAKI-1 renal
[36] = test system: SW-620 colon
[37] = test system: 786-0 renal
[38] = test system: OVCAR-5 ovarian
[39] = test system: SNB-19 CNS
[40] = test system: MALME-3M melanoma
[41] = test system: SK-MEL-2 melanoma
[42] = test system: DU-145 prostate
[43] = test system: CCRF-CEM leukemia
[44] = test system: MCF7 breast
[45] = test system: HL-60(TB) leukemia
[46] = test system: NCI-H460 lung
[47] = test system: HOP-62 NSCLC
[48] = test system: SK-MEL-28 melanoma
[49] = test system: M14 melanoma
[50] = test system: UACC-257 melanoma
[51] = test system: K-562 leukemia
[52] = test system: OVCAR-4 ovarian
[53] = test system: COLO 205 colon
[54] = test system: HCC-2998 colon
[55] = test system: UACC-62 melanoma
[56] = test system: ACHN renal
[57] = test system: HOP-92 NSCLC
[58] = test system: HS 578T breast

Cc1ccccc1C(C(=O)NC1CCCCC1)N(C(=O)CNc1ncccc1F)c1cccc(F)c1 (stereo unspecified)
GI50 [1]: 60.8 µM | TGI [1]: > 100 µM | GI50 [2]: > 80 µM | TGI [2]: > 100 µM | GI50 [3]: > 100 µM | TGI [3]: > 100 µM | GI50 [4]: 19 µM | TGI [4]: > 100 µM | GI50 [5]: > 79.9 µM | TGI [5]: > 100 µM | GI50 [6]: > 100 µM | TGI [6]: > 100 µM | GI50 [7]: > 100 µM | TGI [7]: > 100 µM | GI50 [8]: 20.6 µM | TGI [8]: > 76.8 µM | GI50 [9]: 74.9 µM | TGI [9]: > 100 µM | GI50 [10]: > 100 µM | TGI [10]: > 100 µM | GI50 [11]: 49.6 µM | TGI [11]: > 100 µM | GI50 [12]: 22.7 µM | TGI [12]: 81.7 µM | GI50 [13]: > 100 µM | TGI [13]: > 100 µM | GI50 [14]: > 56.4 µM | TGI [14]: > 100 µM | GI50 [15]: > 100 µM | TGI [15]: > 100 µM | GI50 [16]: 27.6 µM | TGI [16]: > 100 µM | GI50 [17]: > 100 µM | TGI [17]: > 100 µM | GI50 [18]: > 100 µM | TGI [18]: > 100 µM | GI50 [19]: 6.14 µM | TGI [19]: 24.6 µM | GI50 [20]: > 100 µM | TGI [20]: > 100 µM | GI50 [21]: > 58.4 µM | TGI [21]: > 100 µM | GI50 [22]: > 100 µM | TGI [22]: > 100 µM | GI50 [23]: > 100 µM | TGI [23]: > 100 µM | GI50 [24]: > 57.8 µM | TGI [24]: > 100 µM | GI50 [25]: 20.8 µM | TGI [25]: > 61 µM | GI50 [26]: 38.3 µM | TGI [26]: > 100 µM | GI50 [27]: 25.1 µM | TGI [27]: > 100 µM | GI50 [28]: 48.7 µM | TGI [28]: > 100 µM | GI50 [29]: 4.72 µM | TGI [29]: 20.1 µM | GI50 [30]: 96.9 µM | TGI [30]: > 100 µM | GI50 [31]: > 100 µM | TGI [31]: > 100 µM | GI50 [32]: > 100 µM | TGI [32]: > 100 µM | GI50 [33]: > 100 µM | TGI [33]: > 100 µM | GI50 [34]: > 100 µM | TGI [34]: > 100 µM | GI50 [35]: > 53.1 µM | TGI [35]: > 100 µM | GI50 [36]: > 100 µM | TGI [36]: > 100 µM | GI50 [37]: 32.8 µM | TGI [37]: > 100 µM | GI50 [38]: > 100 µM | TGI [38]: > 100 µM | GI50 [39]: 17.2 µM | TGI [39]: > 87.3 µM | GI50 [40]: > 100 µM | TGI [40]: > 100 µM | GI50 [41]: 28.9 µM | TGI [41]: > 90.3 µM | GI50 [42]: > 100 µM | TGI [42]: > 100 µM | GI50 [43]: > 100 µM | TGI [43]: > 100 µM | GI50 [44]: > 100 µM | TGI [44]: > 100 µM | GI50 [45]: > 100 µM | TGI [45]: > 100 µM | GI50 [46]: > 100 µM | TGI [46]: > 100 µM | GI50 [47]: 14.8 µM | TGI [47]: > 64.3 µM | GI50 [48]: > 100 µM | TGI [48]: > 100 µM | GI50 [49]: > 100 µM | TGI [49]: > 100 µM | GI50 [50]: > 100 µM | TGI [50]: > 100 µM | GI50 [51]: > 100 µM | TGI [51]: > 100 µM | GI50 [52]: > 23.6 µM | TGI [52]: > 100 µM | GI50 [53]: > 100 µM | TGI [53]: > 100 µM | GI50 [54]: > 100 µM | TGI [54]: > 100 µM | GI50 [55]: > 75.4 µM | TGI [55]: > 100 µM | GI50 [56]: 49.8 µM | TGI [56]: > 100 µM | GI50 [57]: 13.9 µM | TGI [57]: 62.4 µM | GI50 [58]: 27.2 µM | TGI [58]: > 100 µM
